According to the supplement of paper PMC10307832:

Experiments:
Assay in all cases: relative viability (nuclei count vs DMSO), 5 days (fraction); higher = more cells survive
Tipifarnib + Tozasertib = compound: Cn1cncc1[C@@](N)(c1ccc(Cl)cc1)c1ccc2c(c1)c(-c1cccc(Cl)c1)cc(=O)n2C [Tipifarnib] + Cc1cc(Nc2cc(N3CCN(C)CC3)nc(Sc3ccc(NC(=O)C4CC4)cc3)n2)n[nH]1 [Tozasertib] (partner 0.1 µM)
How it was run: (§1)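 Lung cancer cell lines in 1536-well plates got either a single drug or a fixed anchor-drug dose together with five library-drug doses (not always all listed) in √10 steps, by pin tool, on the day after seeding. Nuclei were counted after 5 days, and relative viability is the treated-to-vehicle ratio of nuclei counts. Values are medians of duplicate plates.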

Tipifarnib + Dasatinib = compound: Cn1cncc1[C@@](N)(c1ccc(Cl)cc1)c1ccc2c(c1)c(-c1cccc(Cl)c1)cc(=O)n2C [Tipifarnib] + Cc1nc(Nc2ncc(C(=O)Nc3c(C)cccc3Cl)s2)cc(N2CCN(CCO)CC2)n1 [Dasatinib] (partner 0.075 µM)
How it was run: as §1

Tipifarnib + Foretinib = compound: Cn1cncc1[C@@](N)(c1ccc(Cl)cc1)c1ccc2c(c1)c(-c1cccc(Cl)c1)cc(=O)n2C [Tipifarnib] + COc1cc2c(Oc3ccc(NC(=O)C4(C(=O)Nc5ccc(F)cc5)CC4)cc3F)ccnc2cc1OCCCN1CCOCC1 [Foretinib] (partner 0.25 µM)
How it was run: as §1

Tipifarnib + Phenformin = compound: Cn1cncc1[C@@](N)(c1ccc(Cl)cc1)c1ccc2c(c1)c(-c1cccc(Cl)c1)cc(=O)n2C [Tipifarnib] + N=C(N)NC(=N)NCCc1ccccc1 [Phenformin] (partner 250 µM)
How it was run: as §1

Tipifarnib + OSI-027 = compound: Cn1cncc1[C@@](N)(c1ccc(Cl)cc1)c1ccc2c(c1)c(-c1cccc(Cl)c1)cc(=O)n2C [Tipifarnib] + COc1cccc2cc(-c3nc([C@H]4CC[C@H](C(=O)O)CC4)n4ncnc(N)c34)[nH]c12 [OSI-027] (partner 0.5 µM)
How it was run: as §1

Tipifarnib + Luminespib = compound: Cn1cncc1[C@@](N)(c1ccc(Cl)cc1)c1ccc2c(c1)c(-c1cccc(Cl)c1)cc(=O)n2C [Tipifarnib] + CCNC(=O)c1noc(-c2cc(C(C)C)c(O)cc2O)c1-c1ccc(CN2CCOCC2)cc1 [Luminespib] (partner 0.01 µM)
How it was run: as §1

Tipifarnib = compound: Cn1cncc1[C@@](N)(c1ccc(Cl)cc1)c1ccc2c(c1)c(-c1cccc(Cl)c1)cc(=O)n2C [Tipifarnib]
How it was run: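 Five library-drug doses spaced by √10 were pinned onto vehicle-anchored 1536-well plates of lung cancer cell lines that had been kept overnight at 37 °C. Cells went 5 days without medium change, then were fixed, permeabilised and Hoechst-stained together, imaged at 4× and counted by MetaXpress. Viability is the ratio of treated-well to vehicle-well nuclei, taken as a median over plates. Plates required control CV below 25% and at least one doubling.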

## NCI-H1623
Tipifarnib + Tozasertib; first compound 0.01 µM
  relative viability: 0.427
Tipifarnib + Tozasertib; first compound 0.03162 µM
  relative viability: 0.39
Tipifarnib + Tozasertib; first compound 0.1 µM
  relative viability: 0.441
Tipifarnib + Tozasertib; first compound 0.3162 µM
  relative viability: 0.413
Tipifarnib + Tozasertib; first compound 1 µM
  relative viability: 0.368
Tipifarnib + Dasatinib; first compound 0.01 µM
  relative viability: 0.547
Tipifarnib + Dasatinib; first compound 0.03162 µM
  relative viability: 0.493
Tipifarnib + Dasatinib; first compound 0.1 µM
  relative viability: 0.551
Tipifarnib + Dasatinib; first compound 0.3162 µM
  relative viability: 0.583
Tipifarnib + Dasatinib; first compound 1 µM
  relative viability: 0.293
Tipifarnib + Foretinib; first compound 0.01 µM
  relative viability: 0.904
Tipifarnib + Foretinib; first compound 0.03162 µM
  relative viability: 0.954
Tipifarnib + Foretinib; first compound 0.1 µM
  relative viability: 0.911
Tipifarnib + Foretinib; first compound 0.3162 µM
  relative viability: 0.765
Tipifarnib + Foretinib; first compound 1 µM
  relative viability: 0.587
Tipifarnib + Phenformin; first compound 0.01 µM
  relative viability: 0.603
Tipifarnib + Phenformin; first compound 0.03162 µM
  relative viability: 0.556
Tipifarnib + Phenformin; first compound 0.1 µM
  relative viability: 0.553
Tipifarnib + Phenformin; first compound 0.3162 µM
  relative viability: 0.565
Tipifarnib + Phenformin; first compound 1 µM
  relative viability: 0.374
Tipifarnib + OSI-027; first compound 0.01 µM
  relative viability: 0.4
Tipifarnib + OSI-027; first compound 0.03162 µM
  relative viability: 0.426
Tipifarnib + OSI-027; first compound 0.1 µM
  relative viability: 0.418
Tipifarnib + OSI-027; first compound 0.3162 µM
  relative viability: 0.361
Tipifarnib + OSI-027; first compound 1 µM
  relative viability: 0.319
Tipifarnib + Luminespib; first compound 0.01 µM
  relative viability: 0.647
Tipifarnib + Luminespib; first compound 0.03162 µM
  relative viability: 0.37
Tipifarnib + Luminespib; first compound 0.1 µM
  relative viability: 0.411
Tipifarnib + Luminespib; first compound 0.3162 µM
  relative viability: 0.412
Tipifarnib + Luminespib; first compound 1 µM
  relative viability: 0.325
Tipifarnib; 0.01 µM
  relative viability: 1.07
Tipifarnib; 0.03162 µM
  relative viability: 1.12
Tipifarnib; 0.1 µM
  relative viability: 0.946
Tipifarnib; 0.3162 µM
  relative viability: 0.886
Tipifarnib; 1 µM
  relative viability: 0.818
